Source: US20170334899A1, “AMINO-SUBSTITUTED ISOTHIAZOLES” (Bayer Pharma Aktiengesellschaft, priority 2014, published 2017)

Test system: HeLa
Assay: Proliferation assay (crystal violet), HeLa
Type: cell-based
Conditions: Homo sapiens, HeLa, 96 h, HeLa cells; 4 days incubation; crystal violet staining; read-out: IC50 inhibition of proliferation, HeLa
Outline: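 Seed 1000–5000 cells/well, 10% FCS; 24 h later replace medium and add compound (0.001–10 μM, 0.5% DMSO); incubate 4 d; glutaraldehyde fix, 0.1% crystal violet pH 3.0, elute with 10% acetic acid; A595; 4-parameter IC50.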

SMILES	IC50 [nM]
Cc1nsc(Nc2cnc(C(F)(F)F)cn2)c1C(=O)Nc1ccc(OC2CCNCC2)nc1 [Example 6, 3-Methyl-N-[6-(piperidin-4-yloxy)pyridin-3-yl]-5-{[5-(trifluoromethyl)pyrazin-2-yl]amino}-1,2-thiazole-4-carboxamide]	10000
CC(=O)N1CCC(Oc2ccc(NC(=O)c3c(C)nsc3Nc3cnc(C(F)(F)F)cn3)cn2)CC1 [Example 11, N-{6-[(1-Acetylpiperidin-4-yl)oxy]pyridin-3-yl}-3-methyl-5-{[5-(trifluoromethyl)-pyrazin-2-yl]amino}-1,2-thiazole-4-carboxamide]	1800
Cc1nsc(Nc2cnc(C(F)(F)F)cn2)c1C(=O)Nc1ccc(C(=O)O)cc1 [Example 97, 4-{[(3-Methyl-5-{[5-(trifluoromethyl)pyrazin-2-yl]amino}-1,2-thiazol-4-yl)carbony]-amino}benzoic acid]	10000
Cc1nsc(Nc2cnc3ccccc3n2)c1C(=O)Nc1cccc(C(=O)NCC(=O)O)c1 [Example 99, N-[3-({[3-Methyl-5-(quinoxalin-2-ylamino)-1,2-thiazol-4-yl]carbonyl}amino)benzoy]-glycine]	10000
COC(=O)CNC(=O)c1cccc(NC(=O)c2c(C)nsc2Nc2cnc3ccccc3n2)c1 [Example 100, Methyl N-[3-({[3-methyl-5-(quinoxalin-2-ylamino)-1,2-thiazol-4-yl]carbonyl}amino)-benzoyl]glycinate]	10000
Cc1nsc(Nc2cnc3ccccc3n2)c1C(=O)Nc1cccc(C(=O)N2CCNCC2)c1 [Example 101, 3-Methyl-N-[3-(piperazin-1-ylcarbonyl)phenyl]-5-(quinoxalin-2-ylamino)-1,2-thiazole-4-carboxamide]	10000
Cc1nsc(Nc2cnc3ccccc3n2)c1C(=O)Nc1cccc(C(=O)N2CCN(C)CC2)c1 [Example 102, 3-Methyl-N-{3-[(4-methylpiperazin-1-yl)carbonyl]phenyl}-5-(quinoxalin-2-ylamino)-1,2-thiazole-4-carboxamide]	10000
Cc1nsc(Nc2cnc3ccccc3n2)c1C(=O)Nc1cccc(C(=O)N[C@@H](CCC(N)=O)C(=O)O)c1 [Example 103, N^2-[3-({[3-Methyl-5-(quinoxalin-2-ylamino)-1,2-thiazol-4-yl]carbonyl}amino)-benzoyl]glutamine]	10000
Cc1nsc(Nc2cnc3ccccc3n2)c1C(=O)Nc1cccc(C(=O)N[C@H](C(=O)O)[C@@H](C)OC(C)(C)C)c1 [Example 104, O-tert-Butyl-N-[3-({[3-methyl-5-(quinoxalin-2-ylamino)-1,2-thiazol-4-yl]-carbonyl}amino)benzoyl]threonine]	6400
Cc1nsc(Nc2cnc3ccccc3n2)c1C(=O)Nc1cccc(C(=O)N[C@H](C(=O)O)[C@@H](C)O)c1 [Example 105, N-[3-({[3-methyl-5-(quinoxalin-2-ylamino)-1,2-thiazol-4-yl]carbonyl}amino)-benzoyl]threonine]	10000
Cc1noc(-c2cccc(NC(=O)c3c(C)nsc3Nc3cnc4ccccc4n3)c2)n1 [Example 106, 3-Methyl-N-[3-(3-methyl-1,2,4-oxadiazol-5-yl)phenyl]-5-(quinoxalin-2-ylamino)-1,2-thiazole-4-carboxamide]	1700
Cc1nsc(Nc2cnc3ccccc3n2)c1C(=O)Nc1cccc(-c2nnc(C(C)(C)C)o2)c1 [Example 107, N-[3-(5-tert-Butyl-1,3,4-oxadiazol-2-yl)phenyl]-3-methyl-5-(quinoxalin-2-ylamino)-1,2-thiazole-4-carboxamide]	3000
CNS(=O)(=O)c1ccc(NC(=O)c2c(C)nsc2Nc2cnc3ccccc3n2)cc1 [Example 111, 3-Methyl-N-[4-(methylsulfannoyl)phenyl]-5-(quinoxalin-2-ylamino)-1,2-thiazole-4-carboxamide]	4400

Further lines, results first:

IC50 [nM]	SMILES
420	Cc1nsc(Nc2cnc(C(F)(F)F)cn2)c1C(=O)Nc1ccc(OC[C@H]2CCN(CC(F)(F)F)C2)nc1 (racemic) [Example 133, 3-Methyl-N-(6-{[(SR)-1-(2,2,2-trifluoroethyl)pyrrolidin-3-yl]methoxy}pyridin-3-yl)-5-{[5-(trifluoromethyl)pyrazin-2-yl]amino}-1,2-thiazole-4-carboxamide]
8800	CC(=O)N(C)CCOc1ccc(NC(=O)c2c(C)nsc2Nc2nc3c(C(F)(F)F)cccc3s2)cn1 [Example 112, N-(6-{2-[Acetyl(methyl)amino]-ethoxy}pyridin-3-yl)-3-methyl-5-{[4-(trifluoromethyl)-1,3-benzothiazol-2-yl]amino}-1,2-thiazole-4-carboxamide]
10000	Cc1nsc(Nc2cnc3ccccc3n2)c1C(=O)Nc1cccc(C(=O)N2CCCC2)c1 [Example 113, 3-Methyl-N-[3-(pyrrolidin-1-ylcarbonyl)phenyl]-5-(quinoxalin-2-ylamino)-1,2-thiazole-4-carboxamide]
10000	Cc1nsc(Nc2cc(C#N)ccn2)c1C(=O)Nc1cccc(C(=O)N2CCCC2)c1 [Example 114, 5-[(4-Cyanopyridin-2-yl)amino]-3-methyl-N-[3-(pyrrolidin-1-ylcarbonyl)phenyl]-1,2-thiazole-4-carboxamide]
4400	Cc1nsc(Nc2cnc3ccccc3n2)c1C(=O)Nc1ccc(S(C)(=O)=O)cc1 [Example 115, 3-Methyl-N-[4-(methylsulfonyl)phenyl]-5-(quinoxalin-2-ylamino)-1,2-thiazole-4-carboxamide]
3000	CCNS(=O)(=O)c1ccc(NC(=O)c2c(C)nsc2Nc2cnc3ccccc3n2)cc1 [Example 116, N-[4-(Ethylsulfamoyl)phenyl]-3-methyl-5-(quinoxalin-2-ylamino)-1,2-thiazole-4-carboxamide]
5300	Cc1nsc(Nc2cc(C#N)ccn2)c1C(=O)Nc1ccc(Oc2cccnc2)nc1 [Example 119, 5-[(4-Cyanopyridin-2-yl)amino]-3-methyl-N-[6-(pyridin-3-yloxy)pyridin-3-yl]-1,2-thiazole-4-carboxamide]
820	Cc1nsc(Nc2cnc(C(F)(F)F)cn2)c1C(=O)Nc1ccc(OCC2CCN(CCF)C2)nc1 (stereo not shown) [Example 121, N-(6-{[1-(2-fluoroethyl)pyrrolidin-3-yl]methoxy}pyridin-3-yl)-3-methyl-5-{[5-(trifluoromethyl)pyrazin-2-yl]amino}-1,2-thiazole-4-carboxamide]
280	Cc1nsc(Nc2cnc(C(F)(F)F)cn2)c1C(=O)Nc1ccc(OCC2CCN(CC(F)F)C2)nc1 (stereo not shown) [Example 122, N-(6-{[1-(2,2-difluoroethyl)pyrrolidin-3-yl]methoxy}pyridin-3-yl)-3-methyl-5-{[5-(trifluoromethyl)pyrazin-2-yl]amino}-1,2-thiazole-4-carboxamide]
130	Cc1nsc(Nc2cnc(C(F)(F)F)cn2)c1C(=O)Nc1ccc(OCC2CCN(CC(F)(F)F)C2)nc1 (stereo not shown) [Example 123, 3-Methyl-N-(6-{[1-(2,2,2-trifluoroethyl)pyrrolidin-3-yl]methoxy}pyridin-3-yl)-5-{[5-(trifluoromethyl)pyrazin-2-yl]amino}-1,2-thiazole-4-carboxamide]
360	Cc1nsc(Nc2cnc(C(F)(F)F)cn2)c1C(=O)Nc1ccc(OCC2CCN(CCC(F)(F)F)C2)nc1 (stereo not shown) [Example 124, 3-methyl-5-{[5-(trifluoromethyl)pyrazin-2-yl]amino}-N-(6-{[1-(3,3,3-trifluoropropyl)pyrrolidin-3-yl]methoxy}pyridin-3-yl)-1,2-thiazole-4-carboxamide]
460	Cc1nsc(Nc2cnc(C(F)(F)F)cn2)c1C(=O)Nc1ccc(OC[C@@H]2CCN(CC(F)F)C2)nc1 [Example 127, N-(6-{[(3R)-1-(2,2-difluoroethyl)pyrrolidin-3-yl]methoxy}pyridin-3-yl)-3-methyl-5-{[5-(trifluoromethyl)pyrazin-2-yl]amino}-1,2-thiazole-4-carboxamide]
230	Cc1nsc(Nc2cnc(C(F)(F)F)cn2)c1C(=O)Nc1ccc(OC[C@@H]2CCN(CC(F)(F)F)C2)nc1 [Example 128, 3-Methyl-N-(6-{[(3R)-1-(2,2,2-trifluoroethyl)pyrrolidin-3-yl]methoxy}pyridin-3-yl)-5-{[5-(trifluoromethyl)pyrazin-2-yl]amino}-1,2-thiazole-4-carboxamide]
250	Cc1nsc(Nc2cnc(C(F)(F)F)cn2)c1C(=O)Nc1ccc(OC[C@@H]2CCN(CCC(F)(F)F)C2)nc1 [Example 129, 3-Methyl-5-{[5-(trifluoromethyl)pyrazin-2-yl]amino}-N-(6-{[(3R)-1-(3,3,3-trifluoropropyl)pyrrolidin-3-yl]methoxy}pyridin-3-yl)-1,2-thiazole-4-carboxamide]
450	Cc1nsc(Nc2cnc(C(F)(F)F)cn2)c1C(=O)Nc1ccc(OC[C@H]2CCN(CC(F)F)C2)nc1 [Example 132, N-(6-{[(3S)-1-(2,2-difluoroethyl)pyrrolidin-3-yl]methoxy}pyridin-3-yl)-3-methyl-5-{[5-(trifluoromethyl)pyrazin-2-yl]amino}-1,2-thiazole-4-carboxamide]
450	Cc1nsc(Nc2cnc(C(F)(F)F)cn2)c1C(=O)Nc1ccc(OC[C@H]2CCN(CCC(F)(F)F)C2)nc1 [Example 134, 3-Methyl-5-{[5-(trifluoromethyl)pyrazin-2-yl]amino}-N-(6-{[(3S)-1-(3,3,3-trifluoropropyl)pyrrolidin-3-yl]methoxy}pyridin-3-yl)-1,2-thiazole-4-carboxamide]
180	Cc1nsc(Nc2cnc(C(F)(F)F)cn2)c1C(=O)Nc1ccc(O[C@@H]2CCN(CC(F)F)C[C@@H]2F)nc1 [Example 137, N-(6-{[(3S,4R)-1-(2,2-difluoroethyl)-3-fluoropiperidin-4-yl]oxy}pyridin-3-yl)-3-methyl-5-{[5-(trifluoromethyl)pyrazin-2-yl]amino}-1,2-thiazole-4-carboxamide]
140	Cc1nsc(Nc2cnc(C(F)(F)F)cn2)c1C(=O)Nc1ccc(O[C@@H]2CCN(CC(F)(F)F)C[C@@H]2F)nc1 [Example 138, N-(6-{[(3S,4R)-3-fluoro-1-(2,2,2-trifluoroethyl)piperidin-4-yl]oxy}pyridin-3-yl)-3-methyl-5-{[5-(trifluoromethyl)pyrazin-2-yl]amino}-1,2-thiazole-4-carboxamide]
